Measured values from ChEMBL document CHEMBL6087416, “Discovery of novel fused-heterocycle-bearing diarypyrimidine derivatives as HIV-1 potent NNRTIs targeting tolerant region I for enhanced antiviral activity and resistance profile” (Eur J Med Chem, 2025).

Tests used:
[1] = system: Human immunodeficiency virus 1; assay type: functional, organism-based; conditions: Human immunodeficiency virus 1, RES056, MT4, 120 h
[2] = Cytotoxicity against human MT4 cells assessed as reduction in cell viability measured after 5 days by MTT assay; assay type: toxicity, cell-based; conditions: time 5 day
[3] = system: Human immunodeficiency virus 2; test: Antiviral activity against HIV-2 ROD infected in human MT4 cells assessed as protection against virus-induced cytopathic effect incubated for 5 days by MTT assay; assay type: functional, organism-based; conditions: Human immunodeficiency virus 2, ROD, MT4, 120 h
[4] = biological target: Human immunodeficiency virus type 1 reverse transcriptase (Human immunodeficiency virus 1, UniProt Q72547); test: Inhibition of wild type HIV-1 Reverse transcriptase incubated for 1 hrs by ELISA analysis
in vitro [5] = conditions: human, MT4 cells
Description: Selectivity index, ratio of CC50 for human MT4 cells to EC50 for wild type HIV-1 IIIB infected in human MT4 cells

in vitro [6] = conditions: human, MT4 cells; remark: listed apart in the source
Description: Selectivity index, ratio of CC50 for human MT4 cells to EC50 for HIV-1 RES056 harboring RT K103N/Y181C mutant infected in human MT4 cells

in vitro [7] = conditions: human, MT4 cells; remark: listed apart in the source
Description: Selectivity index, ratio of CC50 for human MT4 cells to EC50 for HIV-2 ROD infected in human MT4 cells

[8] = system: Human immunodeficiency virus 1; test: microbe, parasite or virus in culture; conditions: Human immunodeficiency virus 1, IIIB, MT4, 120 h
Description: Antiviral activity against wild type HIV-1 IIIB infected in human MT4 cells assessed as protection against virus-induced cytopathic effect incubated for 5 days by MTT assay

[9] = system: Human immunodeficiency virus 1; test: Antiviral activity against NNRTI-resistant HIV-1 harboring RT K103N mutant infected in human MT4 cells assessed as protection against virus-induced cytopathic effect incubated for 5 days by MTT assay; assay type: functional, organism-based; conditions: Human immunodeficiency virus 1, MT4, 120 h
[10] = system: Human immunodeficiency virus 1; test: Antiviral activity against NNRTI-resistant HIV-1 harboring RT E138K mutant infected in human MT4 cells assessed as protection against virus-induced cytopathic effect incubated for 5 days by MTT assay; assay type: functional, organism-based; conditions: Human immunodeficiency virus 1, MT4, 120 h
[11] = system: Human immunodeficiency virus 1; assay type: functional, organism-based; conditions: Human immunodeficiency virus 1, MT4, 120 h
[12] = system: Human immunodeficiency virus 1; test: Antiviral activity against NNRTI-resistant HIV-1 harboring RT L100I mutant infected in human MT4 cells assessed as protection against virus-induced cytopathic effect incubated for 5 days by MTT assay; assay type: functional, organism-based; conditions: Human immunodeficiency virus 1, MT4, 120 h
[13] = system: Human immunodeficiency virus 1; assay type: functional, organism-based; conditions: Human immunodeficiency virus 1, MT4, 120 h; remark: listed apart in the source
[14] = system: Human immunodeficiency virus 1; assay type: functional, organism-based; conditions: Human immunodeficiency virus 1, MT4, 120 h; remark: listed apart in the source
[15] = system: Human immunodeficiency virus 1; test: Potency index, ratio of Zidovudine EC50 to test compound EC50 for antiviral activity against NNRTI-resistant HIV-1 harboring RT K103N mutant infected in human MT4 cells assessed as protection against virus-induced cytopathic effect incubated for 5 days by MTT assay; assay type: functional; conditions: time 5 day
[16] = system: Human immunodeficiency virus 1; test: Potency index, ratio of Nevirapine EC50 to test compound EC50 for antiviral activity against NNRTI-resistant HIV-1 harboring RT K103N mutant infected in human MT4 cells assessed as protection against virus-induced cytopathic effect incubated for 5 days by MTT assay; assay type: functional; conditions: time 5 day
[17] = system: Human immunodeficiency virus 1; test: Potency index, ratio of Efavirenz EC50 to test compound EC50 for antiviral activity against NNRTI-resistant HIV-1 harboring RT K103N mutant infected in human MT4 cells assessed as protection against virus-induced cytopathic effect incubated for 5 days by MTT assay; assay type: functional; conditions: time 5 day
[18] = system: Human immunodeficiency virus 1; test: Potency index, ratio of doravirine EC50 to test compound EC50 for antiviral activity against NNRTI-resistant HIV-1 harboring RT K103N mutant infected in human MT4 cells assessed as protection against virus-induced cytopathic effect incubated for 5 days by MTT assay; assay type: functional; conditions: time 5 day

Cc1cc(/C=C/C#N)cc(C)c1Oc1ccnc(Nc2ccc3occc3c2)n1
EC50 [1]: 8590 nM | CC50 at 120 h [2]: 216 µM | EC50 [3]: 45.5 µM | IC50 [4]: 55 nM | selectivity ratio (in vitro [5]): 31100 | selectivity ratio (in vitro [6]): 25 | selectivity ratio (in vitro [7]): 4.74 | EC50 [8]: 7 nM

Cc1cc(/C=C/C#N)cc(C)c1Oc1ccnc(Nc2ccc3nncn3c2)n1
EC50 [9]: 2 nM | EC50 [10]: 11 nM | EC50 [11]: 32 nM | EC50 [12]: 9 nM | EC50 [13]: 810 nM | EC50 [1]: 350 nM | EC50 [14]: 580 nM | CC50 at 120 h [2]: 21.9 µM | EC50 [3]: 6.14 µM | Ratio EC50 [15]: 19 | Ratio EC50 [16]: 2747 | Ratio EC50 [17]: 50 | Ratio EC50 [18]: 5 | IC50 [4]: 25 nM | selectivity ratio (in vitro [5]): 11500 | selectivity ratio (in vitro [6]): 182 | EC50 [8]: 2 nM

Cc1cc(/C=C/C#N)cc(C)c1Oc1ccnc(Nc2ccc3nsnc3c2)n1
EC50 [1]: 560 nM | CC50 at 120 h [2]: 20.6 µM | EC50 [3]: 1.26 µM | IC50 [4]: 37 nM | selectivity ratio (in vitro [5]): 2850 | selectivity ratio (in vitro [6]): 37 | selectivity ratio (in vitro [7]): 16.4 | EC50 [8]: 7 nM

Cc1cn([C@H]2C[C@H](N=[N+]=[N-])[C@@H](CO)O2)c(=O)[nH]c1=O [ZIDOVUDINE]
EC50 [9]: 36 nM | EC50 [10]: 47 nM | EC50 [11]: 41 nM | EC50 [12]: 14 nM | EC50 [13]: 40 nM | EC50 [1]: 35 nM | CC50 at 120 h [2]: > 7.48 µM | EC50 [3]: 0.039 µM | selectivity ratio (in vitro [5]): > 186 | selectivity ratio (in vitro [6]): > 215 | selectivity ratio (in vitro [7]): > 192 | EC50 [8]: 40 nM

Cc1cc(/C=C/C#N)cc(C)c1Oc1ccnc(Nc2ccc3c(c2)OCO3)n1
EC50 [1]: 2220 nM | CC50 at 120 h [2]: 40.8 µM | EC50 [3]: 8.2 µM | IC50 [4]: 26 nM | selectivity ratio (in vitro [5]): 5260 | selectivity ratio (in vitro [6]): 18 | selectivity ratio (in vitro [7]): 4.98 | EC50 [8]: 8 nM

Cc1cc(/C=C/C#N)cc(C)c1Oc1ccnc(Nc2ccc3scnc3c2)n1
EC50 [9]: 6 nM | EC50 [10]: 17 nM | EC50 [11]: 68 nM | EC50 [12]: 29 nM | EC50 [13]: 1370 nM | EC50 [1]: 950 nM | EC50 [14]: 1230 nM | CC50 at 120 h [2]: 50.2 µM | EC50 [3]: 7.04 µM | IC50 [4]: 43 nM | selectivity ratio (in vitro [5]): 26700 | selectivity ratio (in vitro [6]): 506 | selectivity ratio (in vitro [7]): 7.13 | EC50 [8]: 2 nM

Cc1cc(/C=C/C#N)cc(C)c1Oc1ccnc(Nc2ccc3c(c2)C(=O)N(C)C3=O)n1
EC50 [1]: 4670 nM | CC50 at 120 h [2]: > 294 µM | EC50 [3]: 165 µM | IC50 [4]: 54 nM | selectivity ratio (in vitro [5]): > 52500 | selectivity ratio (in vitro [6]): > 63 | selectivity ratio (in vitro [7]): > 1.78 | EC50 [8]: 6 nM

Cn1c(Cn2ccc(C(F)(F)F)c(Oc3cc(Cl)cc(C#N)c3)c2=O)n[nH]c1=O [DORAVIRINE]
EC50 [9]: 10 nM | EC50 [10]: 19 nM | EC50 [11]: 17 nM | EC50 [12]: 8 nM | EC50 [13]: 1710 nM | EC50 [1]: 50 nM | EC50 [14]: 22100 nM | CC50 at 120 h [2]: > 47 µM | EC50 [3]: > 47 µM | IC50 [4]: 30 nM | selectivity ratio (in vitro [5]): > 6760 | selectivity ratio (in vitro [6]): > 931 | EC50 [8]: 7 nM
